“And” between values parts separate entries of the source, which are not always exact repeats. Identical values can stand only once.
Legend:
STAT3 = assay: pSTAT3 inhibition IC50, STAT3 luciferase reporter assay; type: cell-based, human; details: THP-1STAT3-Luc cells, 72 h treatment, then IL-6 stimulation 5 h, luminescence
[1] = tested on: bone marrow cells from wildtype C57BL/6 mice (M-MDSCs, dendritic cells); type: cell-based; details: 72 h, KR158 glioma conditioned media
[2] = in water at a concentration equivalent to 10 mg/mL of LLL12
THP-1STAT3-Luc cells = details: 72 h, concentration beyond 1.23 μg/mL
[3] = cited from earlier work

Which results are given for NS(=O)(=O)c1cccc2c1C(=O)c1cccc(O)c1C2=O [LLL12]?
IC50 of STAT3 inhibition (STAT3): 0.31 ± 0.05 µg/mL and 0.307 µg/mL; Ly6C+ M-MDSC population compared to vehicle control ([1]; 0.4 μg/mL and 0.04 μg/mL): statistically significant reduction; CD86+ cells (APC activation) ([1]; 0.004-0.4 μg/mL): dose-dependent increase; CD11c expression (CD11c+ cells) compared to vehicle ([1]; highest concentration (0.4 μM)): statistically significant increase; Water solubility (visual) [2]: poorly soluble; Cell death (THP-1STAT3-Luc cells): ~100%; LogP [3]: 2.596
